Experimental findings from US9546157B2, “Asymmetric piperidinyl-substituted ureas as medicines” (Helsinn Healthcare SA, priority 2014, dated 2017) are described below.

The term EC50 denotes the midpoint of the concentration-response curve. By IC50 is commonly meant the concentration at which inhibition is half-maximal.

Test [1] addresses T1, GHSR1a (Homo sapiens, UniProt Q92847).
T1 construct: expressed in transfected cells; host or cells: HEK293
Briefly: Calcium FLIPR assay, GHSR-1a agonism. It is filed as cell-based. Also on record: Emax: unit not given here. As to conditions: HEK293/GHSR1a cells. The method, boiled down: (§1)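 Relative fluorescence read-out (FLIPR) of intracellular calcium in HEK293/GHSR1a cells. For antagonist mode, compound and 10 nM ghrelin were co-added at t=20 sec, and inhibition of the ghrelin response over 2 minutes gave IC50. Agonist mode: compound alone at t=20 sec, response tracked 2 minutes; EC50 from dose-response.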

For test [2], the target named is T1, GHSR1a. Briefly: Calcium FLIPR assay, GHSR-1a antagonism (reduction of ghrelin response). In kind it is cell-based. As to conditions: HEK293/GHSR1a cells, ghrelin 10 nM. The method, boiled down:
as §1

T1 sequence (Q92847 whole entry): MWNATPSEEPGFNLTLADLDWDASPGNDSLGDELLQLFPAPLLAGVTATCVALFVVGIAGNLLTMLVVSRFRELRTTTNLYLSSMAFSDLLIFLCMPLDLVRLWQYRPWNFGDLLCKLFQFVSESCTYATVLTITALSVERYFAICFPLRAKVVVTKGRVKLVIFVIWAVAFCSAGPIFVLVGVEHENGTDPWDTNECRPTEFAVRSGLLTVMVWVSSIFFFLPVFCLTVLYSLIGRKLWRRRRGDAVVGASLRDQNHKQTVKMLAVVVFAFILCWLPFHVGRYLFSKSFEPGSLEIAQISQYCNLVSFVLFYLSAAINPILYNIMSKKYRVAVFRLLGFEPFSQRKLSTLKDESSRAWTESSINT

As for `CC(NC(=O)N(C)C1CCN(C)CC1)c1ccc(C#Cc2c[nH]cn2)c(Cl)c1Cl` (stereo not shown) [Compound H0763, 3-(1-(4-((1H-imidazol-4-yl)ethynyl)-2,3-dichlorophenyl)ethyl)-1-methyl-1-(1-methylpiperidin-4-yl)urea], the EC50 at GHSR1a [1] is over 30000 nM. Besides, the IC50 on GHSR1a [2] came to 835 nM.
As for `CC(NC(=O)N(C)C1CCN(C)CC1)c1ccc(-c2cncc(C3CC3)c2)c(Cl)c1Cl` (stereo not shown) [Compound H0765, 3-(1-(2,3-dichloro-4-(5-cyclopropylpyridin-3-yl)phenyl)ethyl)-1-methyl-1-(1-methylpiperidin-4-yl)urea], on GHSR1a [1], the EC50 was 137 nM and the Emax is on record as 2810. The IC50 at GHSR1a [2] came to 61 nM.
Consider `CC(NC(=O)N(C)C1CCN(C)CC1)c1ccc(-c2cncc([N+](=O)[O-])c2)c(Cl)c1Cl` (stereo not shown) [Compound H0766, 3-(1-(2,3-dichloro-4-(5-nitropyridin-3-yl)phenyl)ethyl)-1-methyl-1-(1-methylpiperidin-4-yl)urea], for which the EC50 on GHSR1a [1] was over 30000 nM. Besides, at GHSR1a [2], the IC50 amounted to 171 nM.
For the compound `CC(NC(=O)N(C)C1CCN(C)CC1)c1ccc(-c2ccncn2)c(Cl)c1Cl` (stereo not shown) [Compound H0768, 3-(1-(2,3-dichloro-4-(pyrimidin-4-yl)phenyl)ethyl)-1-methyl-1-(1-methylpiperidin-4-yl)urea], the EC50 at GHSR1a [1] was over 30000 nM. For the same compound, the IC50 at GHSR1a [2] stood at 279 nM.
With `CC(NC(=O)N(C)C1CCN(C)CC1)c1ccc(-c2cnc(CO)cn2)c(Cl)c1Cl` (stereo not shown) [Compound H0770, 3-(1-(2,3-dichloro-4-(5-(hydroxymethyl)pyrazin-2-yl)phenyl)ethyl)-1-methyl-1-(1-methylpiperidin-4-yl)urea], at GHSR1a [1], the EC50 turned out to be 294 nM and the Emax turned out to be 1783. Moreover, the IC50 on GHSR1a [2] is 700 nM.
For `CC(NC(=O)N(C)C1CCN(C)CC1)c1ccc(-c2cnc(C(=O)N(C)C)cn2)c(Cl)c1Cl` (stereo not shown) [Compound H0771, 5-(2,3-dichloro-4-(1-(3-methyl-3-(1-methylpiperidin-4-yl)ureido)ethyl)phenyl)-N,N-dimethylpyrazine-2-carboxamide] the same measures were 9 nM, 4662 and 9 nM.
With `CC(NC(=O)N(C)C1CCN(C)CC1)c1ccc(NC(=O)c2cccs2)c(Cl)c1Cl` (stereo not shown) [Compound H0772, N-(2,3-dichloro-4-(1-(3-methyl-3-(1-methylpiperidin-4-yl)ureido)ethyl)phenyl)thiophene-2-carboxamide], on GHSR1a [1], the half-maximal effective concentration (EC50) is 7 nM and the Emax is on record as 3569. In addition, on GHSR1a [2], the IC50 amounted to 3 nM.
As for `CC(NC(=O)N(C)C1CCN(C)CC1)c1ccc(C(=O)Nc2cccs2)c(Cl)c1Cl` (stereo not shown) [Compound H0773, 2,3-dichloro-4-(1-(3-methyl-3-(1-methylpiperidin-4-yl)ureido)ethyl)-N-(thiophen-2-yl)benzamide], the EC50 at GHSR1a [1] is over 30000 nM. Besides, at GHSR1a [2], the IC50 amounted to 608 nM.
In the case of `CC(NC(=O)N(C)C1CCN(C)CC1)c1ccc(-c2sccc2C(N)=O)c(Cl)c1Cl` (stereo not shown) [Compound H0774, 2-(2,3-dichloro-4-(1-(3-methyl-3-(1-methylpiperidin-4-yl)ureido)ethyl)phenyl)thiophene-3-carboxamide], on GHSR1a [1], the EC50 is over 30000 nM. Further, the IC50 on GHSR1a [2] amounted to 3400 nM.
For the compound `CC(NC(=O)N(C)C1CCN(C)CC1)c1ccc(C#Cc2ccc(CO)s2)c(Cl)c1Cl` (stereo not shown) [Compound H0775, 3-(1-(2,3-dichloro-4-((5-(hydroxymethyl)thiophen-2-yl)ethynyl)phenyl)ethyl)-1-methyl-1-(1-methylpiperidin-4-yl)urea], the EC50 on GHSR1a [1] is over 5000 nM. For the same compound, on GHSR1a [2], the IC50 was found to be 74 nM.
As to `CC(NC(=O)N(C)C1CCN(C)CC1)c1ccc(C#Cc2ccc(C(N)=O)s2)c(Cl)c1Cl` (stereo not shown) [Compound H0776, 5-((2,3-dichloro-4-(1-(3-methyl-3-(1-methylpiperidin-4-yl)ureido)ethyl)phenyl)ethynyl)thiophene-2-carboxamide], the EC50 on GHSR1a [1] is over 4000 nM. In addition, at GHSR1a [2], the IC50 was 120 nM.
Turning to `CC(NC(=O)N(C)C1CCN(C)CC1)c1ccc(Nc2cccs2)c(Cl)c1Cl` (stereo not shown) [Compound H0777, 3-(1-(2,3-dichloro-4-(thiophen-2-ylamino)phenyl)ethyl)-1-methyl-1-(1-methylpiperidin-4-yl)urea], at GHSR1a [1], the EC50 was determined as 600 nM and the Emax is given as 2288. For the same compound, the IC50 at GHSR1a [2] worked out at 715 nM.
As to `CC(NC(=O)N(C)C1CCN(C)CC1)c1ccc(-c2cncc(N)n2)c(Cl)c1Cl` (stereo not shown) [Compound H0780, 3-(1-(4-(6-aminopyrazin-2-yl)-2,3-dichlorophenyl)ethyl)-1-methyl-1-(1-methylpiperidin-4-yl)urea], the EC50 at GHSR1a [1] is over 30000 nM. Besides, at GHSR1a [2], the IC50 is 63 nM.
For `CC(NC(=O)N(C)C1CCN(C)CC1)c1ccc(-c2ccnnc2)c(Cl)c1Cl` (stereo not shown) [Compound H0783, 3-(1-(2,3-dichloro-4-(pyridazin-4-yl)phenyl)ethyl)-1-methyl-1-(1-methylpiperidin-4-yl)urea] the same measures were 30 nM and 681 nM.
For `CC(NC(=O)N(C)C1CCN(C)CC1)c1ccc(NC(=O)Nc2cccs2)c(Cl)c1Cl` (stereo not shown) [Compound H0784, 3-(1-(2,3-dichloro-4-(4-(thiophen-2-yl)ureido)phenyl)ethyl)-1-methyl-1-(1-methylpiperidin-4-yl)urea], at GHSR1a [1], the EC50 is over 30000 nM. In addition, the IC50 on GHSR1a [2] was 529 nM.
Consider `CC(NC(=O)N(C)C1CCN(C)CC1)c1ccc(C#CCc2cccs2)c(Cl)c1Cl` (stereo not shown) [Compound H0785, 3-(1-(2,3-dichloro-4-(3-(thiophen-2-yl)prop-1-yn-1-yl)phenyl)ethyl)-1-methyl-1-(1-methylpiperidin-4-yl)urea], for which, at GHSR1a [1], the EC50 is 90 nM and the Emax worked out at 2869. Besides, the IC50 at GHSR1a [2] turned out to be 33 nM.
For `CC(NC(=O)N(C)C1CCN(C)CC1)c1ccc(-c2cncc(CCl)n2)c(Cl)c1Cl` (stereo not shown) [Compound H0786, 3-(1-(2,3-dichloro-4-(6-(chloromethyl)pyrazin-2-yl)phenyl)ethyl)-1-methyl-1-(1-methylpiperidin-4-yl)urea] the same measures were 242 nM, 980 and 855 nM.
Turning to `CC(NC(=O)N(C)C1CCN(C)CC1)c1ccc2c(NC3CC3)noc2c1` (stereo not shown) [Compound H0787, 3-(1-(3-(cyclopropylamino)benzo[d]isoxazol-6-yl)ethyl)-1-methyl-1-(1-methylpiperidin-4-yl)urea], the EC50 at GHSR1a [1] came to 3000 nM. In addition, the IC50 on GHSR1a [2] stood at 12000 nM.
Take `CC(NC(=O)N(C)C1CCN(C)CC1)c1ccc(-c2cncc(C#N)n2)c(Cl)c1Cl` (stereo not shown) [Compound H0788, 3-(1-(2,3-dichloro-4-(6-cyanopyrazin-2-yl)phenyl)ethyl)-1-methyl-1-(1-methylpiperidin-4-yl)urea]: at GHSR1a [1], the EC50 is 20 nM and the Emax is recorded as 1230. The IC50 at GHSR1a [2] worked out at 88 nM.
For `COC(=O)c1cncc(-c2ccc(C(C)NC(=O)N(C)C3CCN(C)CC3)c(Cl)c2Cl)n1` (stereo not shown) [Compound H0789, methyl 6-(2,3-dichloro-4-(1-(3-methyl-3-(1-methylpiperidin-4-yl)ureido)ethyl)phenyl)pyrazine-2-carboxylate] the same measures were 26 nM, 1137 and 284 nM.
